Source: PubChem BioAssay (NCI)
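Method: 48-hour compound exposure of cells in 96-well plates, five concentrations, linear interpolation of endpoints. TGI: total growth inhibition.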

Assays:
Assay in all cases: DTP human tumour cell line panel, 48 h
786-0 renal = system: 786-0 renal
A498 renal = system: A498 renal
A549 NSCLC = system: A549 NSCLC
ACHN renal = system: ACHN renal
BT-549 breast = system: BT-549 breast
COLO 205 colon = system: COLO 205 colon
DU-145 prostate = system: DU-145 prostate
EKVX NSCLC = system: EKVX NSCLC
HCC-2998 colon = system: HCC-2998 colon
HCT-116 colon = system: HCT-116 colon
HCT-15 colon = system: HCT-15 colon
HL-60(TB) leukemia = system: HL-60(TB) leukemia
HOP-62 NSCLC = system: HOP-62 NSCLC
HOP-92 NSCLC = system: HOP-92 NSCLC
HS 578T breast = system: HS 578T breast
HT29 colon = system: HT29 colon
IGROV1 ovarian = system: IGROV1 ovarian
K-562 leukemia = system: K-562 leukemia
KM12 colon = system: KM12 colon
LOX IMVI melanoma = system: LOX IMVI melanoma
M14 melanoma = system: M14 melanoma
MALME-3M melanoma = system: MALME-3M melanoma
MCF7 breast = system: MCF7 breast
MDA-MB-231 breast = system: MDA-MB-231 breast
MDA-MB-435 = system: MDA-MB-435
MDA-N = system: MDA-N
MOLT-4 leukemia = system: MOLT-4 leukemia
NCI-H23 lung = system: NCI-H23 lung
NCI-H460 lung = system: NCI-H460 lung
NCI-H522 lung = system: NCI-H522 lung
NCI/ADR-RES ovarian = system: NCI/ADR-RES ovarian
OVCAR-3 ovarian = system: OVCAR-3 ovarian
OVCAR-4 ovarian = system: OVCAR-4 ovarian
OVCAR-5 ovarian = system: OVCAR-5 ovarian
OVCAR-8 ovarian = system: OVCAR-8 ovarian
PC-3 prostate = system: PC-3 prostate
SF-268 CNS = system: SF-268 CNS
SF-539 CNS = system: SF-539 CNS
SK-MEL-2 melanoma = system: SK-MEL-2 melanoma
SK-MEL-28 melanoma = system: SK-MEL-28 melanoma
SK-MEL-5 melanoma = system: SK-MEL-5 melanoma
SK-OV-3 ovarian = system: SK-OV-3 ovarian
SN12C renal = system: SN12C renal
SNB-19 CNS = system: SNB-19 CNS
SNB-75 CNS = system: SNB-75 CNS
SR leukemia = system: SR leukemia
SW-620 colon = system: SW-620 colon
T-47D breast = system: T-47D breast
TK-10 renal = system: TK-10 renal
U251 CNS = system: U251 CNS
UACC-257 melanoma = system: UACC-257 melanoma
UACC-62 melanoma = system: UACC-62 melanoma
UO-31 renal = system: UO-31 renal
CCRF-CEM leukemia = system: CCRF-CEM leukemia
NCI-H226 lung = system: NCI-H226 lung
RXF 393 renal = system: RXF 393 renal
SF-295 CNS = system: SF-295 CNS

Question: `N#CC(C#N)N=Nc1ccc(-c2nc3ccccc3o2)cc1` was tested. Which TGI (786-0 renal) did it give?
Answer: 30.8 µM

Question: What about the TGI (A498 renal) of the same compound?
Answer: 31.2 µM

Question: And the TGI (A549 NSCLC)?
Answer: 47.6 µM

Question: And the TGI (ACHN renal)?
Answer: 41.6 µM

Question: And the TGI (BT-549 breast)?
Answer: 31.8 µM

Question: And the TGI (COLO 205 colon)?
Answer: 23.9 µM

Question: And the TGI (DU-145 prostate)?
Answer: 31.5 µM

Question: And the TGI (EKVX NSCLC)?
Answer: 29.9 µM

Question: And the TGI (HCC-2998 colon)?
Answer: 14.7 µM

Question: What about the TGI (HCT-116 colon) of the same compound?
Answer: 19.5 µM

Question: What about the TGI (HCT-15 colon) of the same compound?
Answer: 38.5 µM

Question: What about the TGI (HL-60(TB) leukemia) of the same compound?
Answer: 40.2 µM

Question: And the TGI (HOP-62 NSCLC)?
Answer: 38.5 µM

Question: And the TGI (HOP-92 NSCLC)?
Answer: > 100 µM

Question: What about the TGI (HS 578T breast) of the same compound?
Answer: > 100 µM

Question: What about the TGI (HT29 colon) of the same compound?
Answer: 27.8 µM

Question: And the TGI (IGROV1 ovarian)?
Answer: 93.2 µM

Question: What about the TGI (K-562 leukemia) of the same compound?
Answer: 54.7 µM

Question: And the TGI (KM12 colon)?
Answer: 50.5 µM

Question: And the TGI (LOX IMVI melanoma)?
Answer: 29 µM

Question: What about the TGI (M14 melanoma) of the same compound?
Answer: 31.2 µM

Question: What about the TGI (MALME-3M melanoma) of the same compound?
Answer: > 100 µM

Question: What about the TGI (MCF7 breast) of the same compound?
Answer: 36.2 µM

Question: What about the TGI (MDA-MB-231 breast) of the same compound?
Answer: 61.7 µM

Question: And the TGI (MDA-MB-435)?
Answer: 52.9 µM

Question: What about the TGI (MDA-N) of the same compound?
Answer: 45.2 µM

Question: And the TGI (MOLT-4 leukemia)?
Answer: 37 µM

Question: And the TGI (NCI-H23 lung)?
Answer: 29.9 µM

Question: And the TGI (NCI-H460 lung)?
Answer: 30.4 µM

Question: And the TGI (NCI-H522 lung)?
Answer: 73.7 µM

Question: What about the TGI (NCI/ADR-RES ovarian) of the same compound?
Answer: 62.9 µM

Question: What about the TGI (OVCAR-3 ovarian) of the same compound?
Answer: 9.77 µM

Question: What about the TGI (OVCAR-4 ovarian) of the same compound?
Answer: > 100 µM

Question: What about the TGI (OVCAR-5 ovarian) of the same compound?
Answer: 36.1 µM

Question: What about the TGI (OVCAR-8 ovarian) of the same compound?
Answer: > 100 µM

Question: What about the TGI (PC-3 prostate) of the same compound?
Answer: 29.2 µM

Question: What about the TGI (SF-268 CNS) of the same compound?
Answer: > 100 µM

Question: And the TGI (SF-539 CNS)?
Answer: 26.1 µM

Question: What about the TGI (SK-MEL-2 melanoma) of the same compound?
Answer: 31.4 µM

Question: And the TGI (SK-MEL-28 melanoma)?
Answer: 32.3 µM

Question: And the TGI (SK-MEL-5 melanoma)?
Answer: 5.56 µM

Question: What about the TGI (SK-OV-3 ovarian) of the same compound?
Answer: 43.7 µM

Question: And the TGI (SN12C renal)?
Answer: 30.5 µM

Question: What about the TGI (SNB-19 CNS) of the same compound?
Answer: 60 µM

Question: And the TGI (SNB-75 CNS)?
Answer: 66.5 µM

Question: And the TGI (SR leukemia)?
Answer: 42.6 µM

Question: What about the TGI (SW-620 colon) of the same compound?
Answer: 28.1 µM

Question: What about the TGI (T-47D breast) of the same compound?
Answer: 25.2 µM

Question: What about the TGI (TK-10 renal) of the same compound?
Answer: 38.2 µM

Question: What about the TGI (U251 CNS) of the same compound?
Answer: 29.7 µM

Question: What about the TGI (UACC-257 melanoma) of the same compound?
Answer: 17.8 µM

Question: What about the TGI (UACC-62 melanoma) of the same compound?
Answer: 26.1 µM

Question: And the TGI (UO-31 renal)?
Answer: 26 µM

Question: Which results are given for `O=C1c2ccccc2C2C1C(c1ccccc1)C1(Cc3ccccc3C1=O)C2c1ccccc1` (centres undefined)?
Answer: TGI (786-0 renal): > 100 µM; TGI (A549 NSCLC): > 100 µM; TGI (ACHN renal): > 100 µM; TGI (BT-549 breast): > 100 µM; TGI (CCRF-CEM leukemia): > 100 µM; TGI (COLO 205 colon): > 100 µM; TGI (DU-145 prostate): > 100 µM; TGI (EKVX NSCLC): > 100 µM; TGI (HCC-2998 colon): > 100 µM; TGI (HCT-116 colon): > 100 µM; TGI (HCT-15 colon): > 100 µM; TGI (HL-60(TB) leukemia): 35.6 µM; TGI (HOP-62 NSCLC): > 100 µM; TGI (HOP-92 NSCLC): > 100 µM; TGI (HS 578T breast): > 100 µM; TGI (HT29 colon): > 100 µM; TGI (IGROV1 ovarian): > 100 µM; TGI (K-562 leukemia): > 100 µM; TGI (KM12 colon): > 100 µM; TGI (LOX IMVI melanoma): > 100 µM; TGI (M14 melanoma): > 100 µM; TGI (MALME-3M melanoma): > 100 µM; TGI (MCF7 breast): > 100 µM; TGI (MDA-MB-231 breast): > 100 µM; TGI (MDA-MB-435): > 100 µM; TGI (MDA-N): > 100 µM; TGI (MOLT-4 leukemia): > 100 µM; TGI (NCI-H226 lung): > 100 µM; TGI (NCI-H23 lung): > 100 µM; TGI (NCI-H460 lung): > 100 µM; TGI (NCI-H522 lung): > 100 µM; TGI (NCI/ADR-RES ovarian): > 100 µM; TGI (OVCAR-3 ovarian): > 100 µM; TGI (OVCAR-4 ovarian): > 100 µM; TGI (OVCAR-5 ovarian): > 100 µM; TGI (OVCAR-8 ovarian): > 100 µM; TGI (PC-3 prostate): > 100 µM; TGI (RXF 393 renal): > 100 µM; TGI (SF-268 CNS): > 100 µM; TGI (SF-295 CNS): > 100 µM; TGI (SF-539 CNS): > 100 µM; TGI (SK-MEL-2 melanoma): > 100 µM; TGI (SK-MEL-28 melanoma): > 100 µM; TGI (SK-MEL-5 melanoma): > 100 µM; TGI (SK-OV-3 ovarian): > 100 µM; TGI (SN12C renal): > 100 µM; TGI (SNB-19 CNS): > 100 µM; TGI (SNB-75 CNS): > 100 µM; TGI (SR leukemia): > 100 µM; TGI (SW-620 colon): > 100 µM; TGI (T-47D breast): > 100 µM; TGI (TK-10 renal): > 100 µM; TGI (U251 CNS): > 100 µM; TGI (UACC-257 melanoma): > 100 µM; TGI (UACC-62 melanoma): > 100 µM; TGI (UO-31 renal): > 100 µM
